Marks after values point to notes of the source that are not given here.
Tests used:
[1] = target: T1, protein tyrosine phosphatase 1B (PTP-1B) (Homo sapiens, UniProt P18031); assay: PTP-1B inhibitory activity test in vitro; type: biochemical
T1 sequence (P18031 1-435): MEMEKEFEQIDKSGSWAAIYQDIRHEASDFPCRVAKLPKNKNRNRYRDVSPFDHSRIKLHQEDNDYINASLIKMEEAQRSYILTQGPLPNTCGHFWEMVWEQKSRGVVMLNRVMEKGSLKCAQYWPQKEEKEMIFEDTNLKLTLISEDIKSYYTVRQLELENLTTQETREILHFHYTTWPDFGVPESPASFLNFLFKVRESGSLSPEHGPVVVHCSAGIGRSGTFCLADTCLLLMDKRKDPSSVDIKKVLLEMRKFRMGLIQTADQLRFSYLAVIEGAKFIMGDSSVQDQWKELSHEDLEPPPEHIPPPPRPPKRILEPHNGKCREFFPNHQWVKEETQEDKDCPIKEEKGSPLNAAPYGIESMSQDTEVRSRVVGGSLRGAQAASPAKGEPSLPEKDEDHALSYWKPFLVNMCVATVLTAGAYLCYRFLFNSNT
Outline: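 Compound was preincubated 10 min at room temperature with 170 μg/mL PTP-1B solution, then 1 mM pNPP substrate was added and incubated 37 °C for 30 min. Reaction stopped with 3M NaOH; absorbance read at […], with blank and compound-background controls.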

aldose reductase = aldose reductase (Homo sapiens, UniProt P15121); assay: aldose reductase inhibitory activity test in vitro; type: biochemical
Outline: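 Absorbance assay with 0.1 mM NADPH solution and enzyme preincubated with compound 10 min at room temperature, then 10 mM D,L-glyceraldehyde solution added as substrate. Incubation 30 min at 37 °C in PBS. Read-out is optical density at 340 nm, corrected with blank (no compound) and background (no substrate) wells.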

normal mice = assay: blood sugar of normal mice; type: in vivo, Kunming species mice; conditions: 50 mg/kg intragastric, 10 days, fasted 10 hours
Method: Blood glucose determination kit (batch number 20140403) is purchased from Nanjing Jiancheng Bioengineering Institute.
Methods: after being acclimatized for 1 week, the 20±2 g Kunming species mice are randomly divided into 3 groups of 12 animals in each. 10 mg/ml extract solution of 0.1 ml (which corresponds to 50 mg/kg) is given to different groups of mice by intragastric administration for 10 days successively, and the control group is given with equal amounts of saline. After the last administration, the mice are fasted for 10 hours and blood is collected from orbit, then detect the blood sugar by blood glucose determination kit.

[2] = test system: hyperglycemia mice induced by alloxan; assay: blood sugar of hyperglycemia mice induced by alloxan; type: in vivo, Kunming species mice; conditions: for effect on blood sugar level of hyperglycemic mice (in words): 50 mg/kg
Method: Blood glucose determination kit (batch number 20140403) is purchased from Nanjing Jiancheng Bioengineering Institute. Methods: after being acclimatized for 1 week, 10 randomly selected Kunming species male mice of SPF level of 20±2 g are used as control group, while the other 50 mice are given alloxan to make model by intraperitoneal injection according to body weight 220 mg/kg.

[3] = test system: Wister rats fed with choline deficient diet; assay: hepatic tissue section of non-alcohol fatty liver rats (HE); type: in vivo; conditions: FIG. 2, 10 and 20 mg/kg
Method: Methods: male SPF level Wister rats are randomly divided into groups: (1) normal group (2) model control group (3) which is administered by compound S13 with the dose of 10 mg/kg (4) which is administered by compound S13 with the dose of 20 mg/kg (5) which is administered by compound S28 with the dose of 10 mg/kg […] which is administered by compound S28 with the dose of 20 mg/kg. Each group has 10 mice. The mice of normal group are fed with standard diet, the mice of other groups are fed with choline deficient diet (high-fat diet). Food intake and body weight are detected. Feeding with choline deficient diet are considered as a frequently-used hepatic adipose infiltration modeling method of rodent, which can induce the denaturation of hepatocyte, hepatitis and liver injury, at the same time the increase of blood lipid level can induce the insulin resistance.
After being fed with high-fat diet for 8 weeks, the mice of treated group are given drugs for 4 weeks successively. Model group and normal group are given with equal amounts of 0.5% CMC-Na. After administration of medicine for 4 weeks, the rats are executed under anesthesia, and then hepatic tissue and blood are collected.
4) Hepatic tissue section: after the last administration, the rats are executed under anesthesia. Collect the liver on the ice, then quickly fix the liver into formalin and prepare the tissue sections.

CC(C)=CCC/C(C)=C/CCC1=C[C@H](c2cc(O)ccc2O)OC1=O [S13, (R,E)-5-(2,5-dihydroxyphenyl)-3-(4,8-dimethylnona-3,7-dien-1-yl)furan-2(5H)-one] gave an IC50 [1] of 8.9 µM, an IC50 (aldose reductase) of 1.8 µM and a blood sugar (normal mice) of 4.21 mmol/L. For the same molecule, the “blood sugar after administration” value ([2]; 50 mg/kg intragastric, 10 days, fasted 10 hours) was 5.11** mmol/L, the “effect on blood sugar level of hyperglycemic mice (in words)” value ([2]; 10 days) was “significantly decrease the blood sugar level of hyperglycemic mice” and the “blood sugar before administration” value ([2]; before administration) was 14.50 mmol/L. The “fat vacuole in hepatocyte (liver tissue section, HE)” value [3] was “almost disappear”.

CC(C)=CCC/C(C)=C/CCC1=C[C@@H](c2cc(O)ccc2O)OC1=O [S28, (S,E)-5-(2,5-dihydroxyphenyl)-3-(4,8-dimethylnona-3,7-dien-1-yl)furan-2(5H)-one] was tested, and the IC50 [1] was 9.5 µM, the IC50 (aldose reductase) was 1.6 µM and the blood sugar (normal mice) was 4.02 mmol/L. For the same molecule, the “effect on blood sugar level of hyperglycemic mice (in words)” value ([2]; 10 days) was “significantly decrease the blood sugar level of hyperglycemic mice” and the “fat vacuole in hepatocyte (liver tissue section, HE)” value [3] was “almost disappear”.
